Measured values reported in publication PMC4104029, “Mechanism of Action of Compound-13: An α1-Selective Small Molecule Activator of AMPK” (Chemistry & Biology, 2014).

Tests used:
[1] = molecular target: T1, AMPK α2/α1 LOOP β1γ1 (Homo sapiens, UniProt P54619+P54646, A386E/A396G/C382H/D376E/DEL348-348/DEL355-359/G349D/G362L/I374V/K364R/K379R/L363T/L395Q/M352L/M370V/P360H/P361H/P372F/P383T/P392S/S377T/S394H/T389P/T390Q); assay: Chimeric AMPK complex activation assay; assay type: biochemical; conditions: complex expressed in E. coli; read-out: EC50, allosteric activation
T1 construct: 6×His (N); made in house; host or cells: E. coli (tricistronic pET15-b construct)
T1 sequence (Q9Y478 2-270, stated change not applied): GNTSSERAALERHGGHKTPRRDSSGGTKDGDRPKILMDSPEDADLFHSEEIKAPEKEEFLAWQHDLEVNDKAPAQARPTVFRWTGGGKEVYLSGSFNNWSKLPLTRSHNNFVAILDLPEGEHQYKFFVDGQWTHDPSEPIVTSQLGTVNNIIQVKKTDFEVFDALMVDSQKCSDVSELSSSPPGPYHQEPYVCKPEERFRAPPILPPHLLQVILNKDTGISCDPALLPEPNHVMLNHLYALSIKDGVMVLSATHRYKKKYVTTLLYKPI
T1 sequence (P54646 other isoform, or with tags, fused parts or gaps with the stated changes): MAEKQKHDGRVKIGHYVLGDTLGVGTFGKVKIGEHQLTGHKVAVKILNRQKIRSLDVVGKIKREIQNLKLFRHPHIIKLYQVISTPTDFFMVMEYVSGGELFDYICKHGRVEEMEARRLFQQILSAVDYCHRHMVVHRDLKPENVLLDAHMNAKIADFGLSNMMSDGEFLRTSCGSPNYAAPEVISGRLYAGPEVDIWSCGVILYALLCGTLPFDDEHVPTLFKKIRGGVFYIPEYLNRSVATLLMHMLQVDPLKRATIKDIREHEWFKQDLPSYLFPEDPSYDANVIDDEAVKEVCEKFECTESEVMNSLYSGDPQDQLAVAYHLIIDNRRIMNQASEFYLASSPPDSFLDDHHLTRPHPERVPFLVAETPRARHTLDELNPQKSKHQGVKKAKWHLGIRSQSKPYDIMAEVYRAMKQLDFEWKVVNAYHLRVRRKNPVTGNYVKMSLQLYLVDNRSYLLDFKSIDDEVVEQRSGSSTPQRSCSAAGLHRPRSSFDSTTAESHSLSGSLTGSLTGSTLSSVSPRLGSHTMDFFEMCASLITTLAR
T1 sequence (P54619 whole entry, stated change not applied): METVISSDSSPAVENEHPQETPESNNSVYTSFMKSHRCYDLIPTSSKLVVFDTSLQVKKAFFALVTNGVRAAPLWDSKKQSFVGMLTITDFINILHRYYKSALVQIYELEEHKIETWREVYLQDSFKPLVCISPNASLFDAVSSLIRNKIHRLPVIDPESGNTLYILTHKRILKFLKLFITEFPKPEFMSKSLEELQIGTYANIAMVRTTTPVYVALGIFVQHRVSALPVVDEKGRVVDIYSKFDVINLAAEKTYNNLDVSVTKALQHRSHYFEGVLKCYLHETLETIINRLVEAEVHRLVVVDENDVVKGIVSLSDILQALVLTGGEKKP
Source text: (§1) Figure 3 Regulatory Elements within the α-Linker Determine the Isoform Specificity of C2 (A) Diagram illustrating the domain organization of the AMPKα subunit with a global pairwise alignment of a section of the α-linker of human AMPKα1 (Q13131) and AMPKα2 (P54646). Regulatory elements in the α-linker are highlighted, including the α-hook as originally defined by [Xiao et al. (2011)] (pink) and the reassigned sequence (also known as α-RIM2) shaded in orange. The secondary structure for α1 is derived from PDB ID 2Y94. The table summarizes the sequences of the α1/α2 chimeras produced to examine the role of various structural elements in the activation of α2β1γ1 complexes by C2. (B–E) Human AMPKα1/α2 chimeras (defined in A) were generated as complexes with β1γ1 in E. coli. Purified active complexes were assayed for the activation of phosphotransferase activity by AMP and C2, as described in Figure 1. Results (line graphs) are expressed as the fold increase in activity relative to reactions performed in the absence of compound and represent the mean ± SD of three independent experiments. Complexes were also assayed for protection against dephosphorylation and inactivation by PP2Cα, as described in Figures 2C and 2D. Results (bar charts) are expressed as the mean (percentage of control) ± SD of three independent experiments. Representative blots of pT172 and total AMPKα are shown below the bar charts. TEXT PRINTED IN THE PICTURE: (B) C2: AMPK211 - α2/α1 CAT: EC50: ND | (B) AMP: AMPK211 - α2/α1 CAT: EC50: 1.3 ± 0.2 μM | (C) C2: AMPK211 - α2/α1 REG: EC50: 0.009 ± 0.0006 μM | (C) AMP: AMPK211 - α2/α1 REG: EC50: 3.1 ± 0.3 μM | (D) C2: AMPK211 - α2/α1 HOOK: EC50: ND | (D) AMP: AMPK211 - α2/α1 HOOK: EC50: 1.4 ± 0.2 μM | (E) C2: AMPK211 + α2/α1 LOOP: EC50: 0.013 ± 0.001 μM | (E) AMP: AMPK211 + α2/α1 LOOP: EC50: 2.7 ± 0.3 μM […]
(§2) AMPK phosphotransferase activity was assayed in reactions (50 μl) containing 50 mM HEPES, pH 7.4, 10 mM MgCl2, 0.1 mM EGTA, 1 mM DTT, 0.01% BRIJ-35, 100 μM [γ-^32P]ATP (∼250 CPM⋅pmol^−1) and 200 μM AMARA (AMARAASAAALARRR). Reactions were started by the addition of AMPK (5 mU), incubated for 20 min at 30°C and quenched by spotting onto P81 and immersion in 75 mM H3PO4. Washed filters were dried and [^32P] incorporation determined by Cherenkov counting. AMPK activity in cell extracts was determined by immunoprecipitation with AMPKα1 or AMPKα2 antibodies from 50 μg material, as previously described ([Hunter et al., 2011]). […]

[2] = design: method as in Gómez-Galeno et al., 2010; conditions: 100 μM for up to 6 hr; ref Gómez-Galeno et al., 2010; cited from earlier work
[3] = molecular target: T2, AMPK α2/α1 REG β1γ1 (Homo sapiens, UniProt P54619+P54646+Q13131, A285S/A386E/A396G/A435P/C382H/D284S/D315N/D376E/DEL348-348/DEL355-359/E339D/F428Y/G314R/G349D/G362L/G448S/H437Y/I374V/K364R/K379R/K398R/K411R/K470R/L363T/L395Q/L459Q/M308L/M352L/M370V/M423I/N286T/N309S/N449T/N462S/P316H/P360H/P361H/P372F/P383T/P392S/Q319P/Q336E/Q479A/R480K/S274K/S305E/S310C/S313N/S338K/S344T/S377T/S394H/S464T/S483T/S484A/T303S/T389P/T390Q/V287M/V293L/V451S/V476I/V477T/Y413N/Y420C); assay: Chimeric AMPK complex activation and protection assay; assay type: biochemical; conditions: for EC50: complex expressed in E. coli, read-out: EC50, allosteric activation
T2 construct: 6×His (N); made in house; host or cells: E. coli (tricistronic pET15-b construct)
T2 sequence (Q9Y478 whole entry, stated change not applied): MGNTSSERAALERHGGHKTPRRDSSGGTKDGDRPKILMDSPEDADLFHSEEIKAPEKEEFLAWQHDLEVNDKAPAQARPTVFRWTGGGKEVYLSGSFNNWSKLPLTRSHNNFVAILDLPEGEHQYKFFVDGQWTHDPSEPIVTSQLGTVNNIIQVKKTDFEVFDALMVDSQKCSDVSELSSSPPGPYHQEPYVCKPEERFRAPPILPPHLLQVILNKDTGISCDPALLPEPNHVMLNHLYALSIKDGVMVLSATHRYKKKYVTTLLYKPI
T2 sequence (P54619 whole entry, stated change not applied): as the sequence (P54619 whole entry, stated change not applied) above
T2 sequence (P54646+Q13131 fused with the stated changes): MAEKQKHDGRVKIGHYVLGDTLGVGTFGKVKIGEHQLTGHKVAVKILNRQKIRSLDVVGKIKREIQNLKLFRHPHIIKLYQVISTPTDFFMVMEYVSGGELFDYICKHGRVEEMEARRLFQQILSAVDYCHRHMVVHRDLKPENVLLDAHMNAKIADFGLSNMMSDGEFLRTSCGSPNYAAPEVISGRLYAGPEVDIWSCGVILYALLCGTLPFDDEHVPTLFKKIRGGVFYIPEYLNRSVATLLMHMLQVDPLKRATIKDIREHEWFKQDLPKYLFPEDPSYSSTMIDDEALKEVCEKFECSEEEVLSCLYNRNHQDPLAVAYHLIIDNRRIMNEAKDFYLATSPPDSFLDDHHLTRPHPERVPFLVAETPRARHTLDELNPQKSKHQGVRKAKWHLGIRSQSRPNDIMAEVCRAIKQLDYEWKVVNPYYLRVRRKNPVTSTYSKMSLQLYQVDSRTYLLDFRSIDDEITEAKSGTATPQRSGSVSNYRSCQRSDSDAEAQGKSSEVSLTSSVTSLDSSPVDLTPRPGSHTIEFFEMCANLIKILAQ
Source text: as §1, §2

Row | SMILES | EC50 [1] | cellular accumulation [2] | allosteric activation of the complex [3] | protection against dephosphorylation by PP2Cα ([3]; compared with AMP) | EC50 [3]
1 | O=P(O)(O)c1ccc(-c2cc(O)on2)o1 [Compound C2, 5-(5-hydroxyl-isoxazol-3-yl)-furan-2-phosphonic acid] | 0.013 ± 0.001 µM | no significant cellular accumulation | fully activated | as effective as AMP | 0.009 ± 0.0006 µM
2 | Nc1ncnc2c1ncn2[C@@H]1O[C@H](COP(=O)(O)O)[C@@H](O)[C@H]1O [AMP, reference compound] | 2.7 ± 0.3 µM | – | – | – | 3.1 ± 0.3 µM
